These results are taken from paper PMC10544575, “Inhibitory mechanism of vortioxetine on CYP450 enzymes in human and rat liver microsomes” (Frontiers in Pharmacology, 2023).

What all share (type): in vitro ADME
One series concerns CYP2C-3. In words: IC50 of vortioxetine on CYP2C-3 (mephenytoin) in RLMs. The note with it: rat, rat liver microsomes, probe mephenytoin. Here is the method:
(§1) The components of the incubation system were as follows: 0.20 mg/mL HLMs or 0.20 mg/mL RLMs, 0.1 M Tris-HCl, vortioxetine, and the probe substrates of each enzyme. In the study of Km’s (Michaelis–Menten constant) experiment, midazolam (1, 2, 5, 10, 20, 50 and 100 μM in HLMs and RLMs) corresponded to CYP3A4/3A; bupropion (10, 20, 50, 100, 200, 500, 1,000 and 2000 μM in HLMs; 1, 2, 5, 10, 20, 50, 100 and 200 μM in RLMs) corresponded to CYP2B6/2B; amodiaquine (5, 10, 20, 50, 100 and 200 μM in HLMs; 10, 20, 50, 100, 200, 500 μM in RLMs) corresponded to CYP2C8/CYP2C-1; losartan (1, 2, 5, 10, 20, 50, 100, 200 μM in HLMs; 10, 20, 50, 100, 200, 500 and 1,000 μM in RLMs) corresponded to CYP2C9/CYP2C-2; mephenytoin (20, 50, 100, 200, 500 and 1,000 μM in HLMs; 5, 10, 20, 50, 100, 200, 500 and 1,000 μM in RLMs) corresponded to CYP2C19/CYP2C-3; and dextromethorphan (1, 2, 5, 10, 20, 50 and 100 μM in HLMs and RLMs) corresponded to CYP2D6/CYP2D. […]
(§2) All experiments results were detected by UPLC-MS/MS, which equipped with a Waters Acquity UPLC system (Milford, MA, United States) and a Waters Xevo TQ-S triple quadrupole tandem mass spectrometer with an electrospray ionization source (Milford, MA, United States). […]
(§3) IC50 values and enzyme kinetic parameters were calculated by Graphpad Prism 6.0 (GraphPad software Inc., CA, United States). […] Data for each experiment were expressed as mean ± SD (n = 3).
For orientation: Liver microsomes are a subcellular fraction often used to study metabolism.

The target in a further series is CYP2C19 (Homo sapiens, UniProt P33261). The series can be described thus: IC50 of vortioxetine on CYP2C19 (mephenytoin) in HLMs. Set-up: 0.20 mg/mL HLMs; from tissue; host or cells: human liver microsomes. How it is done: as §1, §2, §3
CYP2C19, sequence (P33261 whole entry): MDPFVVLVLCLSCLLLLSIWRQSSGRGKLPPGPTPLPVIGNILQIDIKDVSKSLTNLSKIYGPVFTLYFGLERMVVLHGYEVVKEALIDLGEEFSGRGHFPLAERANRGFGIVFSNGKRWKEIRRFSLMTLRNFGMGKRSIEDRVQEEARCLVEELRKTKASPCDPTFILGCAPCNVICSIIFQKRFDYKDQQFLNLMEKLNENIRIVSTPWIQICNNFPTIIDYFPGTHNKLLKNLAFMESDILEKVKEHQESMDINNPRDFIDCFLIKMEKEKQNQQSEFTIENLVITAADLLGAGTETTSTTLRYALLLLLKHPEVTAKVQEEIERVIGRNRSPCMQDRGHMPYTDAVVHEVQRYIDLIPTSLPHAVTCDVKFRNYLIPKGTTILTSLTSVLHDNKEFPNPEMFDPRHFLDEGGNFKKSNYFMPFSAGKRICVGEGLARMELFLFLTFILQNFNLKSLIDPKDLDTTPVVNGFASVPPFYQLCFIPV
For the next series, the target named is CYP3A4 (Homo sapiens, UniProt P08684). In words: Reversible inhibition kinetics (Lineweaver-Burk), CYP3A4 in HLMs. On the set-up: 0.20 mg/mL HLMs; from tissue; host or cells: human liver microsomes. The note with it: midazolam. Here is the method:
(§4) The components of the incubation system were as follows: 0.20 mg/mL HLMs or 0.20 mg/mL RLMs, 0.1 M Tris-HCl, vortioxetine, and the probe substrates of each enzyme. In the study of Km’s (Michaelis–Menten constant) experiment, midazolam (1, 2, 5, 10, 20, 50 and 100 μM in HLMs and RLMs) corresponded to CYP3A4/3A; bupropion (10, 20, 50, 100, 200, 500, 1,000 and 2000 μM in HLMs; 1, 2, 5, 10, 20, 50, 100 and 200 μM in RLMs) corresponded to CYP2B6/2B; amodiaquine (5, 10, 20, 50, 100 and 200 μM in HLMs; 10, 20, 50, 100, 200, 500 μM in RLMs) corresponded to CYP2C8/CYP2C-1; losartan (1, 2, 5, 10, 20, 50, 100, 200 μM in HLMs; 10, 20, 50, 100, 200, 500 and 1,000 μM in RLMs) corresponded to CYP2C9/CYP2C-2; mephenytoin (20, 50, 100, 200, 500 and 1,000 μM in HLMs; 5, 10, 20, 50, 100, 200, 500 and 1,000 μM in RLMs) corresponded to CYP2C19/CYP2C-3; and dextromethorphan (1, 2, 5, 10, 20, 50 and 100 μM in HLMs and RLMs) corresponded to CYP2D6/CYP2D. After 5.0 min of preincubation in the shaking water bath, the reaction was started with the addition of 1.0 mM NADPH. The incubated temperature at 37°C for 30 min. After the incubation, the enzyme reaction was stopped by cooling at −80°C, and 200 μL of acetonitrile and 20 μL of internal standard diazepam (200 ng/mL) were added for protein precipitation. The solution was fully vortexed and centrifuged at 13,000 × rpm for 10 min, and the supernatant was collected for data analysis by UPLC-MS/MS.
The inhibitory mechanism of the inhibitor on the enzyme was generally used by different concentrations of the inhibitor against different concentrations of the probe substrate. The concentrations of the inhibitor and the concentrations of probe substrates in the experiment were estimated based on IC50 and Km values, respectively.
In HLMs, the concentrations of the substrates midazolam, bupropion, amodiaquine, losartan, mephenytoin, and dextromethorphan were 1, 2, 4, 8 μM; 10, 20, 40, 80 μM; 0.8, 1.5, 3, 6 μM; 2, 4, 8, 16 μM; 20, 45, 90, 180 μM; 2.5, 5, 10, 20 μM, respectively. Corresponding to the concentration of vortioxetine were 2, 4, 9, 18 μM; 2, 4, 8, 16 μM; 4, 8, 15, 30 μM; 5, 10, 25, 50 μM; 0.6, 1.2, 2.5, 5 μM; 4.5, 9, 18, 36 μM, respectively.
All experiments results were detected by UPLC-MS/MS, which equipped with a Waters Acquity UPLC system (Milford, MA, United States) and a Waters Xevo TQ-S triple quadrupole tandem mass spectrometer with an electrospray ionization source (Milford, MA, United States). The chromatographic separation was performed on a Waters ACQUITY UPLC BEH C18 column (2.1 × 50 mm, 1.7 μm, Waters Corp.) at 40°C. […]
as §3

Another series concerns the target CYP2C9 (Homo sapiens, UniProt P11712). In words: IC50-shift experiment, CYP2C9 in HLMs. On the set-up: 0.20 mg/mL HLMs or 0.20 mg/mL RLMs; from tissue; host or cells: human liver microsomes. The following applies: for IC50: losartan 8 μM. How it is done: as §4, with “The solution was fully vortexed and centrifuged at 13,000 × rpm for 10 min, and the supernatant was collected for data analysis by UPLC-MS/MS.” left out
IC50-shift was used to investigate whether the drug produced time-dependent inhibition (TDI) of the enzyme. […] During the experiment, the individual substrates midazolam (4 μM), bupropion (40 μM), amodiaquine (3 μM), losartan (8 μM), mephenytoin (90 μM), and dextromethorphan (10 μM) were determined with vortioxetine IC50-shift in HLMs. […]
as §2, §3

Molecules are shown by their SMILES. Like-named read-outs stand apart in the source and are kept apart here.

CYP2C9, sequence (P11712 whole entry): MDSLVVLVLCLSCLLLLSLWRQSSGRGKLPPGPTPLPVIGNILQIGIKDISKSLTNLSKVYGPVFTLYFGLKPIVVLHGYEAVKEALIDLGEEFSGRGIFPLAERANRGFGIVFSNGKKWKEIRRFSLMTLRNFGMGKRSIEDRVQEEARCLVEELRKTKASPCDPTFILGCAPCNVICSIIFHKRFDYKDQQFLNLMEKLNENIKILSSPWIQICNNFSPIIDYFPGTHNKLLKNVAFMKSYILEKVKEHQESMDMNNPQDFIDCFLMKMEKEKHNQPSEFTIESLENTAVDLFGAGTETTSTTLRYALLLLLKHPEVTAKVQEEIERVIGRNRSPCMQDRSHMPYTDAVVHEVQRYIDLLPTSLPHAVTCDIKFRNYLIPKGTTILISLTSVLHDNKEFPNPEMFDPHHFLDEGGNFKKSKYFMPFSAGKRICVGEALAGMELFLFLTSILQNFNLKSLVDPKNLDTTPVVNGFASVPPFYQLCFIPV
CYP3A4, sequence (P08684 whole entry): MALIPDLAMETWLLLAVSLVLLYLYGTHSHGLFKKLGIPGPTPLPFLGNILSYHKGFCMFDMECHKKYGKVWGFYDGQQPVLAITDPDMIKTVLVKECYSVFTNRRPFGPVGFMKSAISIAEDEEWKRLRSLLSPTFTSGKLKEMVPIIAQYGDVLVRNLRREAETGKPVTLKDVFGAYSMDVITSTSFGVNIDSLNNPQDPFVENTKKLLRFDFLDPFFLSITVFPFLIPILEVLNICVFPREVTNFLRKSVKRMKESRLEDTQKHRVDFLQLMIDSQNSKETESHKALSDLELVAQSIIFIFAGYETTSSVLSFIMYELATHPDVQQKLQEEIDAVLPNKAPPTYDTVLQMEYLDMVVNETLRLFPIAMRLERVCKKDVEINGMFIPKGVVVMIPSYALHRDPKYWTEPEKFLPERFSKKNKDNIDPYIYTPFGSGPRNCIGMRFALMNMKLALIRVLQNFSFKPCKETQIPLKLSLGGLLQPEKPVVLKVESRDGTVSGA

By IC50 is commonly meant the concentration needed to halve the response being measured. One may read the Ki as the dissociation constant of the complex between target and ligand, obtained from inhibition or displacement. A high value points to lower affinity. Take `Cc1ccc(Sc2ccccc2N2CCNCC2)c(C)c1` [vortioxetine]: the IC50 at 30 min in the series with CYP2C-3 (RLMs 0.20 mg/mL, mephenytoin at Km, 37°C, 30 min, read-out: IC50) was 20.3 µM; in the series with CYP2C-3 (inhibitory effect (strength judged by IC50), RLMs), more than 10 µM. The half-maximal inhibitory concentration (IC50) is 2.4 µM at CYP2C19 (HLMs 0.20 mg/mL, mephenytoin at Km, 37°C, 30 min, read-out: IC50); 1 to 10 µM on CYP2C19 (inhibitory effect (strength judged by IC50), HLMs); 16.7 µM at CYP2C9 (30 min preincubation with 1.0 mM NADPH); 18.6 µM at CYP2C9 (30 min preincubation without NADPH). The compound further displayed an inhibitory constant (Ki) at CYP3A4 of 7.26 µM. The same compound displayed a α on CYP3A4 of 0.94. The Inhibition type result on CYP3A4 (Lineweaver-Burk plot) is given as “noncompetitive inhibition”. Besides, the αKi on CYP3A4 (secondary plot of y-intercepts) was determined as 6.82 µM. Moreover, at CYP2C9 (human, human liver microsomes, probe losartan (8 μM), ratio IC50 (−) NADPH to IC50 (+) NADPH, read-out: IC50 fold shift), the IC50 shift at 30 min was 1.11.
